Assay [1] deals with T1, Inhibitor of nuclear factor kappa-B kinase subunit epsilon (Homo sapiens) (UniProt Q14164).
T1 sequence (whole entry): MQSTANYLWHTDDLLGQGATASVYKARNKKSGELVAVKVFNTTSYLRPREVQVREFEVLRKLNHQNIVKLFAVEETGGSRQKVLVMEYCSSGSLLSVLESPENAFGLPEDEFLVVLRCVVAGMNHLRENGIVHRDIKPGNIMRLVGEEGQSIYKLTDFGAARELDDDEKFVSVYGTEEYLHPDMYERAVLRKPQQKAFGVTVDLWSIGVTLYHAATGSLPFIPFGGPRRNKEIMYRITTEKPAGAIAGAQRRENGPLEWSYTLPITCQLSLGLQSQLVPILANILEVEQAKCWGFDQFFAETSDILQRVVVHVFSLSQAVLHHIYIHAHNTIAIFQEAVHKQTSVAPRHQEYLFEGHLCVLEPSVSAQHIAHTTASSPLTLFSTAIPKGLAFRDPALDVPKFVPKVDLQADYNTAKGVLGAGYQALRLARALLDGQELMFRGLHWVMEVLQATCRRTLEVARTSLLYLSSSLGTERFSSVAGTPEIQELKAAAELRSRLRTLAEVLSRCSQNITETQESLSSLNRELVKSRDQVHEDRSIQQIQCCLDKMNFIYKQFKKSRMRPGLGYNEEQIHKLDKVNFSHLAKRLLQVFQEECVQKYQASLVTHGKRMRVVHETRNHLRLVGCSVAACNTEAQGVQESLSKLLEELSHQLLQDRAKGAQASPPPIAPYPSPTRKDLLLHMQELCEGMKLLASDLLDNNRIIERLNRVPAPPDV
In words: Percentage IKKepsilon activity remaining in the presence of 0.1uM inhibitor. To be noted: filed as antagonist.

Assay [2] addresses Mitogen-activated protein kinase 8 (Homo sapiens, UniProt P45983). Description: Percentage JNK1 activity remaining in the presence of 2uM inhibitor.
Assay [3] addresses Dual specificity tyrosine-phosphorylation-regulated kinase 1A (Homo sapiens) (UniProt Q13627). Description: Percentage DYRK1A activity remaining in the presence of 2uM inhibitor. To be noted: filed as antagonist.
In assay [4] the target is Serine/threonine-protein kinase pim-3 (Homo sapiens, UniProt Q86V86). In words: Percentage PIM3 activity remaining in the presence of 2uM inhibitor. To be noted: filed as antagonist.
The target of assay [5] is Mitogen-activated protein kinase 10 (Homo sapiens) (UniProt P53779). In words: Percentage JNK3 activity remaining in the presence of 2uM inhibitor.
Mitogen-activated protein kinase 10 (Homo sapiens), sequence (P53779 whole entry): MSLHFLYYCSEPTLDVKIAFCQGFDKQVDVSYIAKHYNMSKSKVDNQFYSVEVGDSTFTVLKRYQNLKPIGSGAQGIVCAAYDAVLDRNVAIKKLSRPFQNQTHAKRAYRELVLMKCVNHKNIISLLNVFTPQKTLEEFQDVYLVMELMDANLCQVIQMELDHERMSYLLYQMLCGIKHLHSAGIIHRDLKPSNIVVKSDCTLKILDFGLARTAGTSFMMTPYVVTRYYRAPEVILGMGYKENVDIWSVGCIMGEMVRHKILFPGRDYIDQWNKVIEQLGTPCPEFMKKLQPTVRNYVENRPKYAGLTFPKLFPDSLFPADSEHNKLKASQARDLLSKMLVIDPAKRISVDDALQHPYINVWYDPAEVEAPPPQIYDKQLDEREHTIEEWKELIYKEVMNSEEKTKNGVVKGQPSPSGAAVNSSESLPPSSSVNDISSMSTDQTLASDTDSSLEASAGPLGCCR
For assay [6], the target named is Proto-oncogene tyrosine-protein kinase Src (Gallus gallus, UniProt P00523). Description: Inhibition of Src in the presence of 50uM ATP.
The target of assay [7] is Rho-associated protein kinase 2 (Homo sapiens) (UniProt O75116). In words: Percentage ROCK2 activity remaining in the presence of 3uM inhibitor.
Rho-associated protein kinase 2 (Homo sapiens), sequence (O75116 whole entry, looked up): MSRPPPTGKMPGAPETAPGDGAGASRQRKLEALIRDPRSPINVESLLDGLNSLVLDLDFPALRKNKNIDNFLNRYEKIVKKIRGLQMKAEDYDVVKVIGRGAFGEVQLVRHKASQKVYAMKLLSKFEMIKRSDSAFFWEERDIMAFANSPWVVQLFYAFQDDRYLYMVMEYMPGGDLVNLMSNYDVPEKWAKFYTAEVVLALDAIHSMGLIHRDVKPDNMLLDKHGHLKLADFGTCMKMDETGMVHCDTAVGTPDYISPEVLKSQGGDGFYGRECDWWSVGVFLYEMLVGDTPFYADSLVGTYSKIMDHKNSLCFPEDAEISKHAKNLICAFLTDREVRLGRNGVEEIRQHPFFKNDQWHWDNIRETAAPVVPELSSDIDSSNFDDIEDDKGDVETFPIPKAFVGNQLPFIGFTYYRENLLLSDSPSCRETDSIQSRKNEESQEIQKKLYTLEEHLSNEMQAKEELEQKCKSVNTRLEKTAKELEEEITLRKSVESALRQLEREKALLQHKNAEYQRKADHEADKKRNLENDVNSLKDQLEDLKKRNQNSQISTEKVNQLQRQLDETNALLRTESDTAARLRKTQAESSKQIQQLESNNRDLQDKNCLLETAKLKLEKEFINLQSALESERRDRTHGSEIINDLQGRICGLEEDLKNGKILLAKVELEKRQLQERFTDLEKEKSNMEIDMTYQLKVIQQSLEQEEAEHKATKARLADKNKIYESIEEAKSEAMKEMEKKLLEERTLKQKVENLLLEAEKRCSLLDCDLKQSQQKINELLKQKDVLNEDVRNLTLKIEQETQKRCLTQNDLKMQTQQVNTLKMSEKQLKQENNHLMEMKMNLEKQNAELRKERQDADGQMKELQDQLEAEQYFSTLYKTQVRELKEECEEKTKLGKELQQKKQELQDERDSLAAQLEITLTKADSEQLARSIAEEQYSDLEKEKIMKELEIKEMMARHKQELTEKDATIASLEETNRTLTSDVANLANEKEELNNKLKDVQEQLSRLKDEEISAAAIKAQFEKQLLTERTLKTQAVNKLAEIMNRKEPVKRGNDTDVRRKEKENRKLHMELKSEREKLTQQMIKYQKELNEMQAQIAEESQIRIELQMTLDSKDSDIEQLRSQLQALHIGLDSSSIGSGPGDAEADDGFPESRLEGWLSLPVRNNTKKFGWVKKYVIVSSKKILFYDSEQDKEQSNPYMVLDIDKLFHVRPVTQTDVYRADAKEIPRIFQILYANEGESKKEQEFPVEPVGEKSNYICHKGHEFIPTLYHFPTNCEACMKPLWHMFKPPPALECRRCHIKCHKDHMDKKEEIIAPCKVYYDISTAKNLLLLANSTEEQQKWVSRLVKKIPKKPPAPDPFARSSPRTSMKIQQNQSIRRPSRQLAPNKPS
Assay [8] deals with T2, Protein kinase C zeta type (Homo sapiens) (UniProt Q05513).
T2 sequence (whole entry): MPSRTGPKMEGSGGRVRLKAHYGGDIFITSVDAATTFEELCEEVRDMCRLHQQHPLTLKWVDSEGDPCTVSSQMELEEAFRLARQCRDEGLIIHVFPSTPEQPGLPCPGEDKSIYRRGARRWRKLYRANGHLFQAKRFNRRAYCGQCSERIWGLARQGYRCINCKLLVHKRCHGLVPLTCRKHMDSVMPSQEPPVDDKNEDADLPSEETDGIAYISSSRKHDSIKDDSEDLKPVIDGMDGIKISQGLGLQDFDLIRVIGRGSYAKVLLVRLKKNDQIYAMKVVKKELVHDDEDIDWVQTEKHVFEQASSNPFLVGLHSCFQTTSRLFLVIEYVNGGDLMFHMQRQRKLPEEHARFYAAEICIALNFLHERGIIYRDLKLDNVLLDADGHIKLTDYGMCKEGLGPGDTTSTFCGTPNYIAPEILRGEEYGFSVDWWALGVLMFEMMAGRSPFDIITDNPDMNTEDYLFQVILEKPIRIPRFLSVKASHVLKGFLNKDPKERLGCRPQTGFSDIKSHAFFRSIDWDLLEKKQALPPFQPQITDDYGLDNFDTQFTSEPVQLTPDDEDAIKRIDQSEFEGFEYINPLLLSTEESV
Description: Percentage PKCzeta activity remaining in the presence of 3uM inhibitor.

Assay [9] addresses Dual specificity mitogen-activated protein kinase kinase 1 (Homo sapiens) (UniProt Q02750). Description: Percentage MKK1 activity remaining in the presence of 3uM inhibitor.
The target in assay [10] is Serine/threonine-protein kinase PAK 6 (Homo sapiens) (UniProt Q9NQU5). Description: Percentage PAK6 activity remaining in the presence of 3uM inhibitor.
Serine/threonine-protein kinase PAK 6 (Homo sapiens), sequence (Q9NQU5 whole entry, looked up): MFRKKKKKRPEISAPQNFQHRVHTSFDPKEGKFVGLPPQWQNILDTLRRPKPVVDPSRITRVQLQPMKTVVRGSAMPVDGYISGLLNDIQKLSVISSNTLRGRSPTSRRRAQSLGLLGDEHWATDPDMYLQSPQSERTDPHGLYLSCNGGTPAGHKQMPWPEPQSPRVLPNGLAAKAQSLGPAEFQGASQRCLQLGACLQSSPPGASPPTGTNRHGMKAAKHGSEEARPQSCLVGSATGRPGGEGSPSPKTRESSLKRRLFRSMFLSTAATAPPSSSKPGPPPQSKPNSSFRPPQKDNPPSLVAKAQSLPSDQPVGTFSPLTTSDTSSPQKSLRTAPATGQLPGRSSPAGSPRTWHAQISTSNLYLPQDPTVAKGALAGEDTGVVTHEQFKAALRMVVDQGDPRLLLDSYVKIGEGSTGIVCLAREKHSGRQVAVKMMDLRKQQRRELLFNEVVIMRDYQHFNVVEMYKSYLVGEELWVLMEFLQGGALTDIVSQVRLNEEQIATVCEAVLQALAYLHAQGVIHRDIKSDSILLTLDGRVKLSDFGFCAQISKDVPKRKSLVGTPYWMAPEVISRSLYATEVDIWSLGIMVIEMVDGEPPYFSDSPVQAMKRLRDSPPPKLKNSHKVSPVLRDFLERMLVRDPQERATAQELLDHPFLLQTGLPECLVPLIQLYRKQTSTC
The target of assay [11] is Ribosomal protein S6 kinase beta-1 (Homo sapiens, UniProt P23443). In words: Inhibition of S6K1 in the presence of 20uM ATP.
Ribosomal protein S6 kinase beta-1, sequence (P23443 whole entry): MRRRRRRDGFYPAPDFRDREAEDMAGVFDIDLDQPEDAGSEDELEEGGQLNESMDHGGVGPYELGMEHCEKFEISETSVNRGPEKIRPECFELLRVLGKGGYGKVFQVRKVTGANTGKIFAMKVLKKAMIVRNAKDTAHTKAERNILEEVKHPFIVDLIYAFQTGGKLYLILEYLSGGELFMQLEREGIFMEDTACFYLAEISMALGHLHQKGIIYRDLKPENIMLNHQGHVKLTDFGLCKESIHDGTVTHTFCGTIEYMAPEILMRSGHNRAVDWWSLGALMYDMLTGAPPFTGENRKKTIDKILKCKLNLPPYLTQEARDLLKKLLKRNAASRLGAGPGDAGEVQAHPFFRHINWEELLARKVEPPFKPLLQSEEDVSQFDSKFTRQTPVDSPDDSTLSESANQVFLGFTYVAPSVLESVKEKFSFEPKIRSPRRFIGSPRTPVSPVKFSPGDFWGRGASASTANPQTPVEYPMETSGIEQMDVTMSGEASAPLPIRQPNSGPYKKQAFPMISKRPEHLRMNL
Assay [12] deals with T3, Dual specificity tyrosine-phosphorylation-regulated kinase 3 (Homo sapiens) (UniProt O43781).
T3 sequence (whole entry): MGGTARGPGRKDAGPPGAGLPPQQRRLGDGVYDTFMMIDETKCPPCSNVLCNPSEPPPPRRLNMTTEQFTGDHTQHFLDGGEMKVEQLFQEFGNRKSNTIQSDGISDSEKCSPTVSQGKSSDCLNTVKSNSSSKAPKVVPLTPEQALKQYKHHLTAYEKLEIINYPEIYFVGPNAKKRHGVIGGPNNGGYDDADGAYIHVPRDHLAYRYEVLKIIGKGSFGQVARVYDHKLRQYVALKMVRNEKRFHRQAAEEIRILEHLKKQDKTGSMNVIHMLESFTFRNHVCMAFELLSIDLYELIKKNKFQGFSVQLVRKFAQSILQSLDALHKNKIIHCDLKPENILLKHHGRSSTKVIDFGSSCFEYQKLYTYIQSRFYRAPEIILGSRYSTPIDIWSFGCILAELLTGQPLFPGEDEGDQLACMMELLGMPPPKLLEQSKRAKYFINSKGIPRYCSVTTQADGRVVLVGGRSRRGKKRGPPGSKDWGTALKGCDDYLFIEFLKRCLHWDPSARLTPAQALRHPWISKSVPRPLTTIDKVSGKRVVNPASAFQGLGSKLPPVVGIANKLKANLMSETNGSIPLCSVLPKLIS
In words: Percentage DYRK3 activity remaining in the presence of 3uM inhibitor.

Dual specificity mitogen-activated protein kinase kinase 1 (Homo sapiens), sequence (Q02750 whole entry): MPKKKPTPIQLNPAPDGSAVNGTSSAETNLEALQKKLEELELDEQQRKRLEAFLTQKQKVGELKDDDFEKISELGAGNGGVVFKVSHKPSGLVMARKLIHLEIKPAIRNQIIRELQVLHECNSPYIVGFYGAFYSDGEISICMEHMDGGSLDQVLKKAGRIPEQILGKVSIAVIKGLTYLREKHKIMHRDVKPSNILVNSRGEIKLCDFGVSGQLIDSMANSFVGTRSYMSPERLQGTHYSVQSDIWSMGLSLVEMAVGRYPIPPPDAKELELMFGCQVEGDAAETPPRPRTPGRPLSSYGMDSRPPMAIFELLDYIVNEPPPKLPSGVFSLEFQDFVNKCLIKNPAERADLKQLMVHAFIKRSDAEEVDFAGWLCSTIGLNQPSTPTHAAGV
Mitogen-activated protein kinase 8, sequence (P45983 whole entry): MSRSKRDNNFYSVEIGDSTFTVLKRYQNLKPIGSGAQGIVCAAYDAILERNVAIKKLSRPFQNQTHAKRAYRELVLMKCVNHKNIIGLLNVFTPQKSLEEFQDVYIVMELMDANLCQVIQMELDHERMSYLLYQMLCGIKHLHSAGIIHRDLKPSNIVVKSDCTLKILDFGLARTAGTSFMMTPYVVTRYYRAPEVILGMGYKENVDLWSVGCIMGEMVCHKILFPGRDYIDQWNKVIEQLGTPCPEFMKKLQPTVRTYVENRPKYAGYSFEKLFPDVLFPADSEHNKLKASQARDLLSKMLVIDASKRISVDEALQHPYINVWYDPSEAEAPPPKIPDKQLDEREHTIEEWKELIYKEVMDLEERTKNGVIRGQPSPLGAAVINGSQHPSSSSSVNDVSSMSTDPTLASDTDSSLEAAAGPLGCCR

On to `O=C(NCCCNc1nc(Nc2cccc(NC(=O)N3CCCC3)c2)ncc1I)c1cccs1`, for which the Activity in [1] is 0%.
As for `Cn1cc(C2=C(c3ccc(Cl)cc3Cl)C(=O)NC2=O)c2ccccc21`, the Activity is 106% in assay [2], 8% in assay [3], 29% in assay [4] and 88% in [5].
In the case of `Cc1ccc(-c2c(C(=O)CF)n(CCCO)c3ncnc(N)c23)cc1`, the IC50 in assay [6] was 560 nM (antagonist); in assay [11], 950 nM (antagonist). For the same compound, the Activity in assay [7] worked out at 86%; in assay [8], 91%; in assay [9], 80%; in assay [10], 93%; in [12], 68%.

What is called IC50 is the concentration that inhibits the measured activity by half.

The record behind these values is ChEMBL document CHEMBL1150976, “The selectivity of protein kinase inhibitors: a further update” (Biochem J, 2007).
